Article PMC12165799, “Antimicrobial peptide developed with machine learning sequence optimization targets drug resistant Staphylococcus aureus in mice” (The Journal of Clinical Investigation, 2025)
Like-named read-outs stand apart in the source and are kept apart here.

What was measured:
S. aureus MW2 = assay: Minimal inhibitory concentration (MIC) assay, broth microdilution; type: cell-based, Staphylococcus aureus
Experimental: 300 Synthesis of peptides
302 Piscataway, NJ, USA).
305 Minimal inhibitory concentration (MIC) assay
We made serial dilutions of 10×
We determined the MIC using OD600
Accordingly, we added 150 mM NaCl,
319 established protocol (5).

[1] = tested on: MRSA (S. aureus MW2) biofilm; assay: Biofilm viability assay on solid support (MW2); type: cell-based, Staphylococcus aureus; conditions: for Bacterial load of 24 hour established biofilm on solid membrane: S. aureus MW2, 24 h in PBS
[2] = tested on: VRSA (S. aureus VRS1) biofilm; assay: Biofilm viability assay on solid support (VRS1); type: cell-based, Staphylococcus aureus; conditions: for Bacterial load of 24 hour established biofilm on solid membrane: S. aureus VRS1, 24 h in PBS
[3] = tested on: S. aureus MW2 biofilm formation; conditions: for Biofilm formation, biomass (crystal violet), percentage of untreated / Biofilm formation, live-cell viability (XTT), percentage of untreated: 24 hours
Experimental: 349 Prevention of S. aureus MW2 biofilm formation
350 We evaluated the ability of the citropin 1.1-derived peptides to inhibit biofilm formation
351 following an established protocol with modifications (5). In short, we prepared exponential
352 cultures of S. aureus MW2 (adjusted to OD600 = 0.01) in TSB medium (supplemented with 0.2%
353 glucose) from overnight cultures. We added 90 µl of the bacterial culture to 10 µl of serially diluted
354 10× peptide solution in flat-bottomed 96-well polystyrene microtiter plates (Cat no. Corning 3595,
We used TSB medium containing
356 bacteria with water as the positive control, while TSB media with sterile water served as the
357 negative control. After incubation, we carefully removed the TSB medium and washed the wells
358 with PBS (Gibco, MD, USA) to remove loosely attached planktonic cells. We quantified the
359 biomass by staining the biofilms with crystal violet following an established protocol and
360 quantitated the concentration of peptide that inhibits 50% of biofilm formation (MBIC50)(8). We
361 measured the live cell count of the biofilms using XTT dye [2,3-bis(2-methyloxy-4-nitro-5-
362 sulfophenyl)-2H-tertazolium-5-carboxanilide] (ATCC, VA, USA).

S. aureus MW2 membrane = assay: Propidium iodide-based membrane permeability; type: cell-based, Staphylococcus aureus; conditions: S. aureus MW2, 60 minutes
Experimental: 484 min at room temperature in the dark based on a previously established protocol (8). We added 90
485 µl of the dye/bacteria mixture to 10 μl of serially diluted 10× peptide concentration in black, 96-
486 well plates (Cat. no. 3904, Corning, NY, USA) and incubated the plates for 1 hour at room
487 temperature. We measured the fluorescence with excitation and emission wavelengths of 485 nm
488 and 525 nm, respectively in endpoint assay mode using a SpectraMax i3x (Molecular Devices,
489 CA, USA) fluorescence reader.
490 Propidium iodide-based membrane permeability
491 We used a propidium iodide (Thermo Fisher Scientific, MA, USA) fluorescence-based
492 bacterial permeation assay to establish membrane-oriented interactions with the designed peptides
493 based on a previously established protocol (8). We prepared exponential phase S. aureus MW2
494 bacteria and diluted to OD600 = 0.4 in PBS. We added PI dye (final concentration = 2 µM) to the
495 bacteria in 1:10 serial dilutions in black, 96-well plates (Cat. no. 3904, Corning, NY, USA) and
496 incubated the plates for 1 hour at room temperature. We then measured the fluorescence with an
497 excitation wavelength of 584 nm and an emission wavelength of 620 nm in endpoint assay mode
498 using a SpectraMax i3x (Molecular Devices, CA, USA) fluorescence reader.
501 To determine the ATP leakage potential of the peptides, we employed a luciferase-based
502 assay(18). In brief, we washed exponential phase of S. aureus MW2 bacteria three times with PBS
503 (pH 7.4) and adjusted the washed cells to OD600 = 0.4 in PBS. Following treatment of the bacteria
504 with 32 µg/ml of CIT-8 peptide at 37°C for 30 min, we centrifuged the cells at 14,000× g for 5
505 min. We transferred 50 µl of each supernatant fraction to black, clear-bottom, 96-well plates

[4] = 40 μg/mL, 24 h established biofilm

How did the “MIC, Medium only” value (S. aureus MW2; S. aureus MW2, TSB) turn out when H-GLFKVIKKLLKVI-NH2 [CIT-8] was run?
The value was 4 µg/mL.

And the “MIC + ZnSO4 (8 μM)” value (S. aureus MW2; S. aureus MW2, TSB + 8 μM ZnSO4)?
The value was 4 µg/mL.

And the “MIC + MgSO4 (1 mM)” value (S. aureus MW2; S. aureus MW2, TSB + 1 mM MgSO4)?
Its value is 4 µg/mL.

And the “MIC + CaCl2 (2.5 mM)” value (S. aureus MW2; S. aureus MW2, TSB + 2.5 mM CaCl2)?
The value was 4 µg/mL.

And the “MIC + NaCl (150 mM)” value (S. aureus MW2; S. aureus MW2, TSB + 150 mM NaCl)?
The value was 4 µg/mL.

And the “MIC + human serum (5%)” value (S. aureus MW2; S. aureus MW2, TSB + 5% human serum)?
The value was 8 µg/mL.

And the “MIC + human serum (10%)” value (S. aureus MW2; S. aureus MW2, TSB + 10% human serum)?
The value was 8 µg/mL.

And the “Increase of MIC in human serum” value (S. aureus MW2; S. aureus MW2, 5%–10% human serum)?
The value was 2 fold.

And the “MIC SA” value (S. aureus MW2; S. aureus MW2, broth microdilution, TSB, 1 × 10^6 CFU/ml, 37°C 18 h, OD600, duplicate)?
The value was 4 µg/mL.

And the “Reduction of viable biofilm cells of MRSA in established biofilms” value ([1]; 40 μg/mL (abstract))?
The value was 3 log10.

What about the “Reduction of MRSA biofilm burden on solid membrane” value [1, 4] of the same substance?
Its value is 2.2 logs.

And the “Bacterial load of 24 hour established biofilm on solid membrane” value (“Bacterial load” for short) ([1]; 4 μg/ml, replicate 1)?
Its value is 2200000.

What about the “Bacterial load” value ([1]; 4 μg/ml, replicate 2) of the same substance?
Its value is 2000000.

And the “Bacterial load” value ([1]; 4 μg/ml, replicate 3)?
Its value is 3600000.

And the “Bacterial load” value ([1]; 4 μg/ml, replicate 4)?
The value was 14000000.

And the “Bacterial load” value ([1]; 4 μg/ml, replicate 5)?
The value was 8000000.

And the “Bacterial load” value ([1]; 4 μg/ml, replicate 6)?
Its value is 3800000.

What about the “Bacterial load” value ([1]; 40 μg/ml, replicate 1) of the same substance?
Its value is 200000.

And the “Bacterial load” value ([1]; 40 μg/ml, replicate 2)?
Its value is 400000.

And the “Bacterial load” value ([1]; 40 μg/ml, replicate 3)?
Its value is 800000.

And the “Bacterial load” value ([1]; 40 μg/ml, replicate 4)?
The value was 200000.

What about the “Bacterial load” value ([1]; 40 μg/ml, replicate 5) of the same substance?
The value was 600000.

What about the “Bacterial load” value ([1]; 40 μg/ml, replicate 6) of the same substance?
The value was 200000.

What about the “Reduction of viable biofilm cells of VRSA in established biofilms” value ([2]; 40 μg/mL (abstract)) of the same substance?
The value was 4 log10.

And the “Reduction of VRSA biofilm burden on solid membrane” value [2, 4]?
Its value is 3.8 logs.

What about the “Bacterial load” value ([2]; 4 μg/ml, replicate 1) of the same substance?
The value was 4000000.

What about the “Bacterial load” value ([2]; 4 μg/ml, replicate 2) of the same substance?
Its value is 80000000.

What about the “Bacterial load” value ([2]; 4 μg/ml, replicate 3) of the same substance?
Its value is 14000000.

And the “Bacterial load” value ([2]; 4 μg/ml, replicate 4)?
Its value is 40000000.

And the “Bacterial load” value ([2]; 4 μg/ml, replicate 5)?
The value was 2000000.

And the “Bacterial load” value ([2]; 4 μg/ml, replicate 6)?
The value was 20000000.

And the “Bacterial load” value ([2]; 40 μg/ml, replicate 1)?
Its value is 16000.

And the “Bacterial load” value ([2]; 40 μg/ml, replicate 2)?
The value was 6000.

And the “Bacterial load” value ([2]; 40 μg/ml, replicate 3)?
Its value is 2400.

And the “Bacterial load” value ([2]; 40 μg/ml, replicate 4)?
Its value is 18000.

What about the “Bacterial load” value ([2]; 40 μg/ml, replicate 5) of the same substance?
Its value is 12000.

And the “Bacterial load” value ([2]; 40 μg/ml, replicate 6)?
The value was 2200.

And the “Biofilm formation, biomass (crystal violet), percentage of untreated” value ([3]; 4 μg/ml, replicate 1)?
Its value is 54.1113.

What about the “Biofilm formation, live-cell viability (XTT), percentage of untreated” value ([3]; 4 μg/ml, replicate 1) of the same substance?
Its value is 32.0317.

And the “Biofilm formation, biomass (crystal violet), percentage of untreated” value ([3]; 4 μg/ml, replicate 2)?
The value was 76.6895.

And the “Biofilm formation, live-cell viability (XTT), percentage of untreated” value ([3]; 4 μg/ml, replicate 2)?
The value was 22.3741.

And the “Biofilm formation, biomass (crystal violet), percentage of untreated” value ([3]; 4 μg/ml, replicate 3)?
Its value is 101.649.

What about the “Biofilm formation, live-cell viability (XTT), percentage of untreated” value ([3]; 4 μg/ml, replicate 3) of the same substance?
Its value is 54.6427.

What about the “Biofilm formation, biomass (crystal violet), percentage of untreated” value ([3]; 8 μg/ml, replicate 1) of the same substance?
Its value is 13.6231.

What about the “Biofilm formation, live-cell viability (XTT), percentage of untreated” value ([3]; 8 μg/ml, replicate 1) of the same substance?
Its value is -0.6814.

And the “Biofilm formation, biomass (crystal violet), percentage of untreated” value ([3]; 8 μg/ml, replicate 2)?
The value was 7.383.

And the “Biofilm formation, live-cell viability (XTT), percentage of untreated” value ([3]; 8 μg/ml, replicate 2)?
Its value is -0.6073.

What about the “Biofilm formation, biomass (crystal violet), percentage of untreated” value ([3]; 8 μg/ml, replicate 3) of the same substance?
Its value is 9.789.

What about the “Biofilm formation, live-cell viability (XTT), percentage of untreated” value ([3]; 8 μg/ml, replicate 3) of the same substance?
The value was -0.7036.

And the “Biofilm formation, biomass (crystal violet), percentage of untreated” value ([3]; 16 μg/ml, replicate 1)?
The value was 8.5978.

What about the “Biofilm formation, live-cell viability (XTT), percentage of untreated” value ([3]; 16 μg/ml, replicate 1) of the same substance?
The value was -0.7406.

And the “Biofilm formation, biomass (crystal violet), percentage of untreated” value ([3]; 16 μg/ml, replicate 2)?
Its value is 7.669.

And the “Biofilm formation, live-cell viability (XTT), percentage of untreated” value ([3]; 16 μg/ml, replicate 2)?
Its value is -0.7184.

And the “Biofilm formation, biomass (crystal violet), percentage of untreated” value ([3]; 16 μg/ml, replicate 3)?
Its value is 8.622.

And the “Biofilm formation, live-cell viability (XTT), percentage of untreated” value ([3]; 16 μg/ml, replicate 3)?
Its value is -0.5258.

And the “Biofilm formation, biomass (crystal violet), percentage of untreated” value ([3]; 32 μg/ml, replicate 1)?
The value was 7.502.

And the “Biofilm formation, live-cell viability (XTT), percentage of untreated” value ([3]; 32 μg/ml, replicate 1)?
Its value is -0.6814.

What about the “Biofilm formation, biomass (crystal violet), percentage of untreated” value ([3]; 32 μg/ml, replicate 2) of the same substance?
Its value is 7.074.

What about the “Biofilm formation, live-cell viability (XTT), percentage of untreated” value ([3]; 32 μg/ml, replicate 2) of the same substance?
Its value is -0.6962.

And the “Biofilm formation, biomass (crystal violet), percentage of untreated” value ([3]; 32 μg/ml, replicate 3)?
The value was 7.812.

What about the “Biofilm formation, live-cell viability (XTT), percentage of untreated” value ([3]; 32 μg/ml, replicate 3) of the same substance?
The value was -0.5036.

And the “Concentration killing 50% of biofilm cells during biofilm formation” value ([3]; XTT live-cell viability, 24 h)?
Its value is 4 µg/mL.

And the “MBIC50 (biomass reduced by 50%)” value ([3]; crystal violet, 24 h)?
The value was 6 µg/mL.

What about the “Propidium iodide fluorescence (membrane permeation)” value (S. aureus MW2 membrane) of the same substance?
Its value is “increased fluorescence compared with untreated controls”.
